We go through seven molecules from patent US20260294769A1, “ASCORBIC ACID DERIVATIVES AND COSMETIC THEREOF” (SEIWA KASEI COMPANY, LIMITED, priority 2023, published 2026).

A short description of series [1]: Stability Test-1: odor of 1% aqueous solutions adjusted to pH 7 stored at 50° C. It is filed as physicochemical. As to conditions: 1% aqueous solution pH 7, 50° C., 10 panelists. On the procedure:
(§1) For each of the samples of Synthesis Examples 1 to 6, 1% aqueous solutions were adjusted to pH 3, 5, 7, 8, and 9 with a dilute potassium hydroxide aqueous solution, and then placed in 50 mL screw tubes and sealed. […] Furthermore, the odor and coloration of the samples adjusted to pH 7 were evaluated based on the following methods and criteria, and the results are shown in Table 11.
(§2) • Evaluation was made by 10 panelists according to the following criteria. • 3: Almost odorless. • 2: There is a slight strange odor. • 1: A strong odor is detected. • Based on the results of the above evaluation, the following classification was made: • ◯: Total score of 10 panelists is 25 or more • Δ: Total score of 10 panelists is 16-24 • x: The total score of 10 panelists is 15 or less

For series [2], the system named is Normal human dermal fibroblasts (NHDF). The series can be described thus: Hyaluronic acid production promoting effect (ELISA of hyaluronic acid in supernatant). It counts as cell-based. As to conditions: 10 mM or less, 48 hours, control group set to 100%, N=3. On the procedure: Normal human dermal fibroblasts (NHDF) were prepared in D-MEM containing 5% (v/v) fetal bovine serum to a cell density of 2.5×10^4 cells/well, and then pre-incubated on a 96-well plate for 24 hours. After removing the medium, samples prepared in serum-free D-MEM were added to each well and cultured for 48 hours. After the culture was completed, the amount of hyaluronic acid in the supernatant was quantified by ELISA. Measurements were performed in triplicate (N=3).
The amount of hyaluronic acid produced when the sample was measured at a concentration of 10 mM or less was compared with that of the control group, and the results (% values when the control group is set to 100%) are shown in Tables 18 to 20 based on the following criteria.

The nature of series [3]: Stability Test-1: residual rate of 1% aqueous solutions stored at 50° C. (HPLC). It counts as physicochemical. As to conditions: water; for remaining at 672 h: after 4 weeks. On the procedure: as §1
• ⊚: 80% or more • ◯: 50% or more, less than 80% • Δ: 30% or more, less than 50% • x: Less than 30%

The nature of series [4]: Stability Test-1: coloration of 1% aqueous solutions adjusted to pH 7 stored at 50° C. It counts as physicochemical. As to conditions: 1% aqueous solution pH 7, 50° C., 10 panelists. On the procedure: as §1
• Evaluation was made by 10 panelists according to the following criteria. • 3: Almost no change compared to immediately after preparation. • 2: Color changes compared to immediately after preparation. • 1: Strongly colored compared to immediately after preparation. • Based on the results of the above evaluation, the following classification was made: […]

A short description of series [5]: Stability Test-2: residual rate in cream of pH 7 or 9 stored at 50° C. It counts as physicochemical. On the procedure:
(§3) For each of the samples of Synthesis Examples 9 to 32, (a) and (b) shown in Table 12 were each heated and mixed. After cooling, (c) shown in Table 12 was added to prepare a cream with a pH of 7 or 9. […] The odor and coloration were also evaluated according to the same method and criteria as in Test Example 1. The results regarding the residual rate are shown in Tables 13 and 14, and the results regarding the odor and coloration are shown in Tables 15 and 16.

Series [6] is described as follows: Stability Test-2: odor of cream stored at 50° C. It is filed as physicochemical. As to conditions: 10 panelists.
Source text: as §2, §3

The subject of series [7] is Normal human dermal fibroblasts. The series can be described thus: Collagen production promoting effect (ELISA of free collagen in supernatant). It counts as cell-based. As to conditions: 10 mM or less, 48 hours, control group set to 100%, N=3. On the procedure: Normal human dermal fibroblasts were prepared in D-MEM containing 5% (v/v) fetal bovine serum to a cell density of 2.5×10^4 cells/well, and then pre-incubated for 24 hours on a 96-well plate. After removing the medium, samples prepared to a predetermined concentration in D-MEM containing 5% (v/v) fetal bovine serum were added to each well and cultured for 48 hours. After the culture was completed, the amount of free collagen in the supernatant was quantified by ELISA. Measurements were performed in triplicate (N=3).
The amount of collagen produced when the sample was measured at a concentration of 10 mM or less was compared with that of the control group, and the results (% values when the control group was set to 100%) are shown in Table 17 based on the following criteria.

The nature of series [8]: Stability Test-2: coloration of cream stored at 50° C. As to conditions: 10 panelists. It counts as physicochemical.
Source text: • Evaluation was made by 10 panelists according to the following criteria. • 3: Almost no change compared to immediately after preparation. • 2: Color changes compared to immediately after preparation. • 1: Strongly colored compared to immediately after preparation. • Based on the results of the above evaluation, the following classification was made:
as §3

[9] abbreviates: pH 3, 50° C., after 2 weeks, 1% aqueous solution, read-out: Residual Rate.
The mark [10] stands for this setting: pH 3, 50° C., 1% aqueous solution.
Setting [11] is: pH 5, 50° C., after 2 weeks, 1% aqueous solution, read-out: Residual Rate.
[12] abbreviates: pH 5, 50° C., 1% aqueous solution.
Where [13] appears, read: pH 7, 50° C., after 2 weeks, 1% aqueous solution, read-out: Residual Rate.
Where [14] appears, read: pH 7, 50° C., 1% aqueous solution.
Setting [15] is: pH 8, 50° C., after 2 weeks, 1% aqueous solution, read-out: Residual Rate.
Setting [16] is: pH 8, 50° C., 1% aqueous solution.
[17] abbreviates: pH 9, 50° C., after 2 weeks, 1% aqueous solution, read-out: Residual Rate.
[18] abbreviates: pH 9, 50° C., 1% aqueous solution.
[19] abbreviates: cream pH 7, 50° C., after 2 weeks, 20160 min.
Where [20] appears, read: cream pH 7, 50° C., after 4 weeks, 40320 min.
Setting [21] is: cream pH 9, 50° C., after 2 weeks, 20160 min.
Setting [22] is: cream pH 9, 50° C., after 4 weeks, 40320 min.

Where two headings read alike, the source gives them in different places. Bounds are passed on as bounds.

On to `O=C1O[C@H]([C@@H](O)CO)C(O)=C1O` [Ascorbic acid], for which the figures for the Odor result in series [1] (after 2 weeks) and in series [1] (after 4 weeks) were “Δ (Total score of 10 panelists is 16-24)” and “x (The total score of 10 panelists is 15 or less)”, respectively. Also, in series [2], the “Hyaluronic acid production-promoting effect” value was “± (<100%)”. The remaining at 336 h is 50 to 80% in series [3] (setting [9]); 50 to 80% in series [3] (setting [11]); less than 30% in series [3] (setting [13]); less than 30% in series [3] (pH 7 to 9, 50° C., after two weeks, read-out: residual rates); less than 30% in series [3] (setting [15]); less than 30% in series [3] (setting [17]). Besides, the remaining at 672 h is 30 to 50% in series [3] (setting [10]); less than 30% in series [3] (setting [12]); less than 30% in series [3] (setting [14]); less than 30% in series [3] (setting [16]); less than 30% in series [3] (setting [18]). The Coloration result was “Δ (Total score of 10 panelists is 16-24)” in series [4] (after 2 weeks) and “x (The total score of 10 panelists is 15 or less)” in series [4] (after 4 weeks).
With `O=C1OC(C(O)CO)C2=C1OCC(O)CO2` (stereo not drawn) [Synthesis Example 4, 2,3-O-(2-hydroxypropane-1,3-diyl) ascorbic acid], the Odor result in series [1] (after 2 weeks) and in series [1] (after 4 weeks) was “∘ (Total score of 10 panelists is 25 or more)” throughout. Further, in series [2], the “Hyaluronic acid production-promoting effect” value is reported as “++ (120%<)”. Besides, the remaining at 336 h was no less than 80% in series [3] (setting [9]); no less than 80% in series [3] (setting [11]); 50 to 80% in series [3] (setting [13]); 50 to 80% in series [3] (setting [15]); 50 to 80% in series [3] (setting [17]). Besides, the remaining at 672 h is no less than 80% in series [3] (setting [10]); no less than 80% in series [3] (setting [12]); 50 to 80% in series [3] (setting [14]); 30 to 50% in series [3] (setting [16]); 30 to 50% in series [3] (setting [18]). In addition, the Coloration entry in series [4] (after 2 weeks) and in series [4] (after 4 weeks) was “∘ (Total score of 10 panelists is 25 or more)” each time.
As to `O=C1OC(C(O)CO)C2=C1OC(CO)CO2` (stereo not drawn) [Synthesis Example 5, 2,3-O-(1-hydroxymethyl-1,2-ethanediyl) ascorbic acid], the Odor entry in series [1] (after 2 weeks) and in series [1] (after 4 weeks) was “∘ (Total score of 10 panelists is 25 or more)” each time. Also, the remaining at 336 h in series [3] (setting [9]) is no less than 80%; in series [3] (setting [11]), no less than 80%; in series [3] (setting [13]) it was 50 to 80%; in series [3] (setting [15]), 50 to 80%; in series [3] (setting [17]), 50 to 80%. Also, the remaining at 672 h in series [3] (setting [10]) is no less than 80%; in series [3] (setting [12]), no less than 80%; in series [3] (setting [14]) it was 30 to 50%; in series [3] (setting [16]) it was 30 to 50%; in series [3] (setting [18]), 30 to 50%. The Coloration result in series [4] (after 2 weeks) and in series [4] (after 4 weeks) was “∘ (Total score of 10 panelists is 25 or more)” in each case.
Consider `CCCCCCCC(=O)OCC(OC(=O)CCCCCCC)C1OC(=O)C2=C1OCCCCO2` (stereo not drawn) [Synthesis Example 12, 5,6-O-dioctanoyl-2,3-O-(1,4-butanediyl) ascorbic acid], for which the “Residual Rate” value in series [5] (setting [19]), in series [5] (setting [20]), in series [5] (setting [21]) and in series [5] (setting [22]) was “⊚ (95% or more)” in each case. Also, the Odor entry in series [6] (after 2 weeks) is on record as “◯ (Total score of 10 panelists is 25 or more)”; in series [6] (after 4 weeks) it was “Δ (Total score of 10 panelists is 16-24)”. In addition, the Collagen production-promoting effect entry in series [7] is on record as “++ (140%<)”. In addition, the “Hyaluronic acid production-promoting effect” value in series [2] is on record as “++ (120%<)”. Further, the Coloration result in series [8] (after 2 weeks) and in series [8] (after 4 weeks) was “◯ (Total score of 10 panelists is 25 or more)” throughout.
`CCCCCCCCCCCCCCCC(=O)OCC(O)C1OC(=O)C2=C1OCCCCO2` (stereo not drawn) [Synthesis Example 15, 6-O-palmitoyl-2,3-O-(1,4-butanediyl) ascorbic acid]: the “Residual Rate” value in series [5] (setting [19]), in series [5] (setting [20]), in series [5] (setting [21]) and in series [5] (setting [22]) was “⊚ (95% or more)” in each case. For the same molecule, the values for the Odor entry in series [6] (after 2 weeks) and in series [6] (after 4 weeks) were “◯ (Total score of 10 panelists is 25 or more)” and “Δ (Total score of 10 panelists is 16-24)”, respectively. In addition, in series [7], the Collagen production-promoting effect entry is “++ (140%<)”. Besides, in series [2], the “Hyaluronic acid production-promoting effect” value is “++ (120%<)”. Besides, the Coloration result in series [8] (after 2 weeks) and in series [8] (after 4 weeks) was “◯ (Total score of 10 panelists is 25 or more)” in each case.
Take `CCCC(=O)OCC(OC(=O)CCC)C1OC(=O)C2=C1OCCCO2` (stereo not drawn) [Synthesis Example 21, 5,6-O-dibutanoyl-2,3-O-(1,3-propanediyl) ascorbic acid]: the “Residual Rate” value in series [5] (setting [19]), in series [5] (setting [20]), in series [5] (setting [21]) and in series [5] (setting [22]) was “⊚ (95% or more)” each time. For the same molecule, the Odor result in series [6] (after 2 weeks) is listed as “◯ (Total score of 10 panelists is 25 or more)”; in series [6] (after 4 weeks), “Δ (Total score of 10 panelists is 16-24)”. Further, the Collagen production-promoting effect entry in series [7] is “++ (140%<)”. Moreover, in series [2], the “Hyaluronic acid production-promoting effect” value is “++ (120%<)”. Besides, the Coloration entry in series [8] (after 2 weeks) and in series [8] (after 4 weeks) was “◯ (Total score of 10 panelists is 25 or more)” throughout.
For `CC(C)CCCCCCCCCCCCCCC(=O)OCC(OC(=O)CCCCCCCCCCCCCCC(C)C)C1OC(=O)C2=C1OCCCO2` (stereo not drawn) [Synthesis Example 29, 5,6-O-diisostearoyl-2,3-O-(1,3-propanediyl) ascorbic acid], the “Residual Rate” value in series [5] (setting [19]), in series [5] (setting [20]), in series [5] (setting [21]) and in series [5] (setting [22]) was “⊚ (95% or more)” each time. Moreover, the Odor result is “◯ (Total score of 10 panelists is 25 or more)” in series [6] (after 2 weeks) and “Δ (Total score of 10 panelists is 16-24)” in series [6] (after 4 weeks). Further, the Collagen production-promoting effect entry in series [7] is given as “++ (140%<)”. Besides, the Coloration result in series [8] (after 2 weeks) and in series [8] (after 4 weeks) was “◯ (Total score of 10 panelists is 25 or more)” in each case.
